In ChEMBL document CHEMBL1154867, “Cytotoxic halogenated metabolites from the Brazilian red alga Laurencia catarinensis” (J Nat Prod, 2010):

Assays:
Format in all cases: functional, cell-based
[1] = tested on: HT-29; assay: Cytotoxicity against human HT-29 cells after 24 hrs by MTT assay; details: HT-29, 24 h
[2] = tested on: A-431; assay: Cytotoxicity against human A431 cells after 24 hrs by MTT assay; details: A-431, 24 h
[3] = tested on: MCF7; assay: Cytotoxicity against human MCF7 cells after 24 hrs by MTT assay; details: MCF7, 24 h

SMILES	IC50 [1] [µM]	IC50 [2] [µM]	IC50 [3] [µM]
CC(=O)O[C@H]1C[C@@](C)(Cl)[C@H](Br)C[C@@H]1[C@]1(C)OC(C)(C)[C@@H](Br)C[C@@H]1O	12.4	13.1	11.7
CC(=O)O[C@H]1C[C@H](Br)C(C)(C)O[C@@]1(C)[C@H]1C[C@@H](Br)[C@](C)(Cl)C[C@@H]1O	70.4	72.1	73.6
CC(=O)O[C@H]1C[C@@](C)(Cl)[C@H](Br)C[C@@H]1[C@]1(C)OC(C)(C)[C@@H](Br)C[C@@H]1OC(C)=O	> 100	> 100	> 100
CC(=O)O[C@H]1C[C@@](C)(Cl)[C@H](Br)C[C@@H]1[C@@]1(C)CC[C@H](Br)C(C)(C)O1	48.8	54.9	52.4
CC1(C)O[C@@](C)([C@@H]2CC[C@@](C)(Cl)[C@H](Br)C2)CC[C@H]1Br	> 100	> 100	> 100
CO[C@@]1(C)OC(=O)C=C1[C@@H]1CC[C@@](C)(Cl)[C@H](Br)C1 (relative stereo)	85.6	91.7	89
CO[C@]1(C)OC(=O)C=C1[C@@H]1CC[C@@](C)(Cl)[C@H](Br)C1 (relative stereo)	> 100	> 100	> 100
CC(=O)O[C@H]1C[C@H](Br)C(C)(C)O[C@@]1(C)[C@@H]1CC[C@@](C)(Cl)[C@H](Br)C1 [ACETYLCAESPITOL]	16.1	17.4	17.6
CC1(C)C=CC(=O)[C@](C)([C@@H]2CC[C@@](C)(Cl)[C@H](Br)C2)O1 [CAESPITENONE]	18.9	21.6	19.7
CC1(C)O[C@](C)([C@H]2CC[C@](C)(Cl)[C@@H](Br)C2)[C@H](O)C[C@H]1Br [CAESPITOL]	7.6	10.2	9.7
CC1(C)O[C@@](C)([C@@H]2CC[C@](C)(Br)[C@@H](Cl)C2)CC[C@@H]1Br [DEOXY ISOCAESPITOL]	27.3	30.7	31.7
CC1(C)O[C@@](C)([C@@H]2CC[C@@](C)(Cl)[C@H](Br)C2)CC[C@@H]1Br [DEOXYCAESPITOL]	12.5	13.1	11.2
C[C@]1(O)OC(=O)C=C1[C@@H]1CC[C@@](C)(Cl)[C@H](Br)C1 [FUROCAESPITANELACTOL]	> 100	> 100	> 100
CC1(C)O[C@@](C)([C@@H]2CC[C@](C)(Br)[C@@H](Cl)C2)[C@@H](O)C[C@@H]1Br [ISOCAESPITOL]	> 100	> 100	> 100
CCCCCCCCCCCCCCCCOP(=O)([O-])OCC[N+](C)(C)C [MILTEFOSINE]	48.6	53.7	42.3
